Experimental data from ChEMBL document CHEMBL3885861, “Open TG-GATES”.

Organism: Rattus norvegicus
Experiment: Open TG-GATES - Regimen: Single
Assay type: toxicity, organism-based, Sprague-Dawley
Parameters: regimen Single, gender Male, age 6 weeks
Conditions: in vivo, iv, route intravenous injection; for TBIL / TC / TG / TP / gamma-GTP / A/G / ALP / ALT / AST / BUN / CRE / Ca / Cl / DBIL / GLC / IP / K / LDH / Na / PL / RALB: tissue Plasma; for APTT / Bas / Eos / Fbg / Hb / Ht / Lym / MCH / MCHC / MCV / Mono / Neu / PT / Plat / RBC / Ret / WBC: tissue Blood; for KIDNEY_L / KIDNEY_R / KIDNEY_TOTAL: tissue Kidney; for LIVER: tissue Liver
[1] = 0 mg/kg, 24 h, dose level Control

## C[C@@H]1C[C@@H]([C@H](O)CC2CC(=O)NC(=O)C2)C(=O)[C@@H](C)C1 [CYCLOHEXIMIDE]
[1]
  TBIL: 0.018 mg/dL
  TC: 75 mg/dL
  TG: 83.2 mg/dL
  TP: 5.6 g/dL
  gamma-GTP: 1.8 IU/L
1 mg/kg, 3 h, dose level Low
  TERMINAL_BW: 216.3 g
  APTT: 20.1 s
  Bas: 0%
  Eos: 0.6%
  Fbg: 275.2 mg/dL
  Hb: 13.1 g/dL
  Ht: 38.5%
  Lym: 73.2%
  MCH: 21.7 pg
  MCHC: 34%
  MCV: 63.7 fL
  Mono: 2.4%
  Neu: 22.2%
  PT: 17.6 s
  Plat: 121.9 x10_4/uL
  RBC: 605.6 x10_4/ul
  Ret: 8.4%
  WBC: 174.9 x10_2/uL
  KIDNEY_L: 0.9 g
  KIDNEY_R: 0.9 g
  KIDNEY_TOTAL: 1.9 g
  LIVER: 9 g
  A/G: 1.4
  ALP: 1054.4 IU/L
  ALT: 46 IU/L
  AST: 86 IU/L
  BUN: 23.6 mg/dL
  CRE: 0.1 mg/dL
  Ca: 9.6 mg/dL
  Cl: 107.4 meq/L
  DBIL: 0.002 mg/dL
  GLC: 145.6 mg/dL
  IP: 9.1 mg/dL
  K: 4.3 meq/L
  LDH: 174 IU/L
  Na: 142.2 meq/L
  PL: 78.8 mg/dL
  RALB: 2.8 g/dL
  TBIL: 0.016 mg/dL
  TC: 55.2 mg/dL
  TG: 61.6 mg/dL
  TP: 4.9 g/dL
  gamma-GTP: 1.6 IU/L
1 mg/kg, 6 h, dose level Low
  TERMINAL_BW: 217.9 g
  APTT: 25.1 s
  Bas: 0%
  Eos: 1%
  Fbg: 276 mg/dL
  Hb: 13.2 g/dL
  Ht: 39.6%
  Lym: 65.2%
  MCH: 21.2 pg
  MCHC: 33.4%
  MCV: 63.4 fL
  Mono: 2.8%
  Neu: 30%
  PT: 19.7 s
  Plat: 107.5 x10_4/uL
  RBC: 625.2 x10_4/ul
  Ret: 7.7%
  WBC: 190 x10_2/uL
  KIDNEY_L: 0.9 g
  KIDNEY_R: 1 g
  KIDNEY_TOTAL: 1.9 g
  LIVER: 8.6 g
  A/G: 1.5
  ALP: 1085.8 IU/L
  ALT: 45 IU/L
  AST: 82.6 IU/L
  BUN: 18.2 mg/dL
  CRE: 0.1 mg/dL
  Ca: 8.6 mg/dL
  Cl: 105.4 meq/L
  DBIL: 0.004 mg/dL
  GLC: 146.2 mg/dL
  IP: 9.4 mg/dL
  K: 3.6 meq/L
  LDH: 164.8 IU/L
  Na: 140.8 meq/L
  PL: 74 mg/dL
  RALB: 3 g/dL
  TBIL: 0.01 mg/dL
  TC: 42.8 mg/dL
  TG: 83.8 mg/dL
  TP: 5 g/dL
  gamma-GTP: 1.4 IU/L
1 mg/kg, 9 h, dose level Low
  TERMINAL_BW: 216 g
  APTT: 26 s
  Bas: 0%
  Eos: 0%
  Fbg: 276.6 mg/dL
  Hb: 13.8 g/dL
  Ht: 41.2%
  Lym: 70.2%
  MCH: 21.1 pg
  MCHC: 33.4%
  MCV: 63.1 fL
  Mono: 1.8%
  Neu: 26.8%
  PT: 20.4 s
  Plat: 122.9 x10_4/uL
  RBC: 653.8 x10_4/ul
  Ret: 7%
  WBC: 187.2 x10_2/uL
  KIDNEY_L: 0.9 g
  KIDNEY_R: 0.9 g
  KIDNEY_TOTAL: 1.9 g
  LIVER: 8.9 g
  A/G: 1.4
  ALP: 1037.4 IU/L
  ALT: 39.6 IU/L
  AST: 78.2 IU/L
  BUN: 16 mg/dL
  CRE: 0.1 mg/dL
  Ca: 9.5 mg/dL
  Cl: 106.2 meq/L
  DBIL: 0.008 mg/dL
  GLC: 162.6 mg/dL
  IP: 8.9 mg/dL
  K: 3.9 meq/L
  LDH: 205 IU/L
  Na: 140.4 meq/L
  PL: 90 mg/dL
  RALB: 2.8 g/dL
  TBIL: 0.022 mg/dL
  TC: 56.2 mg/dL
  TG: 38.4 mg/dL
  TP: 4.8 g/dL
  gamma-GTP: 1 IU/L
1 mg/kg, 24 h, dose level Low
  TERMINAL_BW: 227.7 g
  APTT: 23.9 s
  Bas: 0%
  Eos: 0.2%
  Fbg: 334.6 mg/dL
  Hb: 13.2 g/dL
  Ht: 39.8%
  Lym: 85.4%
  MCH: 20.5 pg
  MCHC: 33.1%
  MCV: 61.8 fL
  Mono: 2%
  Neu: 10.6%
  PT: 16.8 s
  Plat: 115.4 x10_4/uL
  RBC: 643.4 x10_4/ul
  Ret: 6%
  WBC: 148.3 x10_2/uL
  KIDNEY_L: 1 g
  KIDNEY_R: 1 g
  KIDNEY_TOTAL: 2 g
  LIVER: 10.9 g
  A/G: 1.3
  ALP: 1100.2 IU/L
  ALT: 31.2 IU/L
  AST: 53.4 IU/L
  BUN: 12.2 mg/dL
  CRE: 0.2 mg/dL
  Ca: 10.2 mg/dL
  Cl: 107.6 meq/L
  DBIL: 0.006 mg/dL
  GLC: 197.2 mg/dL
  IP: 6.6 mg/dL
